Legend:
[1] = xn = mol fraction of the nth substance listed; settings: 101.3 kPa, Liquid; for speed of sound: Frequency=3 MHz, Sing-around technique in a fixed-path interferometer; for mass density: Vibrating tube method
[2] = refractive index (Na D-line) (dimensionless); xn = mol fraction of the nth substance listed; settings: 101.3 kPa, Liquid, Standard Abbe refractometry

COS(=O)(=O)[O-].Cn1cc[n+](C)c1 [1,3-dimethylimidazolium methylsulfate] + CCCCCO
Settings	mass density, [1] [kg/m3]	refractive index, [2]	speed of sound, [1] [m/s]
298 K, x1 = 0.1	884	1.417	1311
298 K, x1 = 0.35	1041	1.439	1448
298 K, x1 = 0.54	1140	1.454	1552
298 K, x1 = 0.661	1195	1.463	1618
298 K, x1 = 0.79	1250	1.471	1672
298 K, x1 = 0.931	1304	1.479	1751
298 K, x1 = 1	1329	1.483	1811
303 K, x1 = 0.1	879	1.416	1295
303 K, x1 = 0.35	1035	1.438	1432
303 K, x1 = 0.54	1134	1.452	1536
303 K, x1 = 0.661	1189	1.461	1603
303 K, x1 = 0.79	1243	1.469	1659
303 K, x1 = 0.931	1298	1.477	1738
303 K, x1 = 1	1322	1.481	1799
308 K, x1 = 0.1	875	1.414	1278
308 K, x1 = 0.35	1031	1.436	1417
308 K, x1 = 0.54	1129	1.451	1521
308 K, x1 = 0.661	1185	1.459	1588
308 K, x1 = 0.79	1239	1.467	1645
308 K, x1 = 0.931	1294	1.476	1725
308 K, x1 = 1	1319	1.48	1787
313 K, x1 = 0.1	871	1.412	1261
313 K, x1 = 0.35	1026	1.433	1401
313 K, x1 = 0.54	1125	1.448	1506
313 K, x1 = 0.661	1181	1.456	1574
313 K, x1 = 0.79	1235	1.465	1631
313 K, x1 = 0.931	1290	1.474	1713
313 K, x1 = 1	1315	1.479	1775

COS(=O)(=O)[O-].Cn1cc[n+](C)c1 [1,3-dimethylimidazolium methylsulfate] + CCCCO
Settings	mass density, [1] [kg/m3]	refractive index, [2]	speed of sound, [1] [m/s]
298 K, x1 = 0.063	861	1.405	1263
298 K, x1 = 0.221	982	1.421	1357
298 K, x1 = 0.432	1108	1.443	1500
298 K, x1 = 0.64	1205	1.46	1617
298 K, x1 = 0.781	1258	1.47	1688
298 K, x1 = 0.927	1307	1.479	1761
298 K, x1 = 1	1329	1.483	1811
303 K, x1 = 0.063	857	1.401	1246
303 K, x1 = 0.221	977	1.418	1341
303 K, x1 = 0.432	1102	1.439	1485
303 K, x1 = 0.64	1198	1.457	1602
303 K, x1 = 0.781	1252	1.468	1675
303 K, x1 = 0.927	1300	1.477	1748
303 K, x1 = 1	1322	1.481	1799
308 K, x1 = 0.063	852	1.398	1229
308 K, x1 = 0.221	972	1.414	1325
308 K, x1 = 0.432	1097	1.435	1469
308 K, x1 = 0.64	1193	1.454	1587
308 K, x1 = 0.781	1248	1.465	1661
308 K, x1 = 0.927	1297	1.475	1735
308 K, x1 = 1	1319	1.48	1787
313 K, x1 = 0.063	848	1.395	1213
313 K, x1 = 0.221	967	1.41	1309
313 K, x1 = 0.432	1092	1.431	1454
313 K, x1 = 0.64	1189	1.45	1572
313 K, x1 = 0.781	1243	1.461	1647
313 K, x1 = 0.927	1293	1.472	1722
313 K, x1 = 1	1315	1.479	1775
